Results on two molecules are retold here after patent US8518988B2, “Polymorph of the hydrochloride of the (4-hydroxycarbamoyl-phenyl)-carbamic acid (6-dimethylamino methyl-2-naphthalenyl) ester” (Chemi SPA, priority 2010, dated 2013).

As a reminder, the Solubility is the concentration that dissolves in the medium under given conditions. Low values mean a poorly soluble substance, high ones a readily soluble substance.

The nature of series [1]: Comparative solubility in 0.9% sodium chloride solution (isotonic solution). It is filed as physicochemical. Conditions: 37° C.; for Solubility: 10 mg in 10 ml 0.9% sodium chloride solution, agitated 24 hours; for Relative solubility vs. form I: 0.9% sodium chloride solution, 24 hours. As to the method: As a matter of fact, a comparative experiment between form I of the compound (A) (monohydrate prepared as described in U.S. Pat. No. 7,329,689) and form II of compound (A), subject of the present invention, was carried out.
10 mg of compound (A) in crystalline form I were agitated in 10 ml of a 0.9% sodium chloride solution (isotonic solution) at 37° C. for 24 hours. The concentration of the product in liquid phase was measured at the end.
Table 1 indicates the obtained solubility data.

Series [2] can be described thus: Stability test of crystalline form at 40° C., 75% humidity, analysed by PXRD. Conditions: thin layer on Petri dish, samples after 2, 7 and 15 days. It counts as physicochemical. On the procedure:
FIG. 5 describes the profile of the stability diffractograms of ITF 2357 of form II at 40° C., 75% relative humidity at different times. In particular, the first diffractogram from the bottom is performed at time 0, the second diffractogram from the bottom is performed after 2 days, the third diffractogram from the bottom is performed after 7 days and the fourth diffractogram from the bottom is performed after 15 days.
In detail, a sample of form II of ITF 2357 was deposited in a thin layer having a thickness of about 0.5 cm on a Petri dish and placed in an environment with a constant humidity of 75%, at a constant temperature of 40° C. for two weeks. Samples were taken after 2, 7 and 15 days and analysed through Powder X Ray Diffraction (PXRD). The results of such experiments were summarised in FIG. 5, where the diffractograms obtained from the samples of the various collections were indicated overlapped.

Consider `CN(C)Cc1ccc2cc(OC(=O)Nc3ccc(C(=O)NO)cc3)ccc2c1.Cl` [Form I, hydrochloride of the (4-hydroxycarbamoyl-phenyl)-carbamic acid (6-dimethylamino methyl-2-naphtalenyl) ester, reference compound], for which, in series [1], the Solubility came to 154 µg/mL and the “Relative solubility vs. form I” value is recorded as 1.00.

With `CN(C)Cc1ccc2cc(OC(=O)Nc3ccc(C(=O)NO)cc3)ccc2c1.Cl` [Form II, hydrochloride of the (4-hydroxycarbamoyl-phenyl)-carbamic acid (6-dimethylamino methyl-2-naphtalenyl) ester], in series [1], the Solubility came out at 226 µg/mL and the “Relative solubility vs. form I” value stood at 1.47. Moreover, the “Relative solubility vs. form I” value in series [1] (listed as form II) came to 1.47. The “Stability of the crystalline form (PXRD)” value in series [2] was “no modifications of the crystalline form was observed”.
